US20250034118A1, “ANTIMALARIAL HEXAHYDROPYRIMIDINE DERIVATIVES” (UCB BIOPHARMA SRL, priority 2021, published 2025)
Counter-ions that a name gives are not always drawn. Like-named read-outs stand apart in the source and are kept apart here.

Tested on: Plasmodium falciparum 3D7 strain
Experiment: P. falciparum 3D7 asexual blood stage assay (SYBR green readout)
Format: cell-based
Description: The compounds of the present invention are potent inhibitors of the growth and propagation of the Plasmodium falciparum parasite in human blood.
The assay used to measure the effect of test compounds on a bloodstream stage of Plasmodium falciparum 3D7 strain employs SYBR green as the readout. This is a dye that binds to double stranded deoxyribonucleic acid (DNA) with a resulting increase in fluorescence, allowing detection of P. falciparum DNA in infected erythrocytes, and thereby providing a measure of parasite growth and propagation.
Erythrocytes (A+ blood) were prepared for both parasite culture and assay by washing 4 times with incomplete media (15.9 g RPMI 1640 (25 mM HEPES, L-glutamine), 1 g NaHCO3, 2 g glucose, 400 μL gentacin (500 mg/mL), 2 mL hypoxanthine solution (13.6 g/L in 0.1M NaOH pH 7.3) in 1 litre of media). The cells were centrifuged at 1800 g for 5 minutes, before decanting the supernatant and re-suspending in fresh incomplete media. On the final wash, the cells were re-suspended in complete media (incomplete media with 5 g/L AlbumaxII), and centrifuged at 1800 g for 3 minutes. This cell sediment was treated as 100% haematocrit.
P. falciparum 3D7 was cultured in erythrocytes at 5% haematocrit in complete media at 37° C. (1% O2, 3% CO2, balance N2). […]
On day 5, fluorescent signal was measured using a BioTek plate reader (excitation 485 nm, emission 528 nm). […]

IC50 (Erythrocyte, P. falciparum 3D7 in erythrocytes, 5% haematocrit, 0.5% parasitaemia, 72 h incubation, SYBR green fluorescence, read-out: IC50) [nM] | SMILES | IC50 (3D7, Erythrocyte, 72 h) [nM]
 | CO[C@H]1C[C@@H](N2C(=N)N[C@](C)(c3cccc(NC(=O)c4cncn4CC(F)(F)F)c3Cl)CC2=O)CCC1(F)F (relative stereo) [Example 2, N-(2-Chloro-3-{(4S)-1-[(1S*, 3S*)-4,4-difluoro-3-methoxycyclohexyl]-2-imino-4-methyl-6-oxohexahydropyrimidin-4-yl}phenyl)-3-(2,2,2-trifluoroethyl)imidazole-4-carboxamide hydrochloride] | 4.2
5 | C[C@@H]1C[C@H](N2C(=N)N[C@](C)(c3cccc(NC(=O)c4cncn4CC(F)(F)F)c3Cl)CC2=O)CCC1(F)F [Example 1, N-(2-Chloro-3-{(4S)-1-[(1R,3R)-4,4-difluoro-3-methylcyclohexyl]-2-imino-4-methyl-6-oxohexahydropyrimidin-4-yl}phenyl)-3-(2,2,2-trifluoroethyl)imidazole-4-carboxamide] | 
